Data from ChEMBL document CHEMBL4190378, “Synthesis and evaluation of new 2-chloro-4-aminopyrimidine and 2,6-dimethyl-4-aminopyrimidine derivatives as tubulin polymerization inhibitors” (Bioorg Med Chem Lett, 2018).
Active and inactive are the calls of the source. The calls are words filed in the database; no cut-off is given here.

Legend:
HCT-116 = assay: Antiproliferative activity against human HCT116 cells incubated for 48 hrs by MTT assay; format: functional, cell-based; conditions: HCT-116, 48 h
HeLa [1] = assay: Induction of cell cycle arrest in human HeLa cells assessed as tetraploid peaks level at 50 nM incubated for 24 hrs by propidium iodide staining based flow cytometry; format: functional
HeLa [2] = assay: Induction of cell cycle arrest in human HeLa cells assessed as accumulation at G2/M phase at 100 nM incubated for 24 hrs by propidium iodide staining based flow cytometry; format: functional
HeLa [3] = assay: Induction of cell cycle arrest in human HeLa cells assessed as accumulation at G2/M phase at 500 nM incubated for 24 hrs by propidium iodide staining based flow cytometry; format: functional
HeLa [4] = assay: Induction of cell cycle arrest in human HeLa cells assessed as tetraploid peaks level at 50 nM incubated for 48 hrs by propidium iodide staining based flow cytometry; format: functional
HeLa [5] = assay: Induction of cell cycle arrest in human HeLa cells assessed as induction of disappearance of G2/M phase at 500 nM incubated for 48 hrs by propidium iodide staining based flow cytometry; format: functional
HeLa [6] = assay: Induction of cell cycle arrest in human HeLa cells assessed as accumulation at subG1 phase at 100 nM incubated for 24 hrs by propidium iodide staining based flow cytometry; format: functional
HeLa [7] = assay: Induction of cell cycle arrest in human HeLa cells assessed as accumulation at subG1 phase at 500 nM incubated for 24 hrs by propidium iodide staining based flow cytometry; format: functional
HeLa [8] = assay: Inhibition of tubulin polymerization in human HeLa cells assessed as morphological changes by measuring narrowing of nucleus at 0.5 uM incubated for 24 hrs by laser scanning confocal microscopy; format: functional, cell-based
HeLa [9] = assay: Inhibition of tubulin polymerization in human HeLa cells assessed as morphological changes by measuring spindle microtubule dis-organisation at 0.5 uM incubated for 24 hrs by laser scanning confocal microscopy; format: functional, cell-based
HeLa [10] = assay: Induction of apoptosis in human HeLa cells assessed as viable cells level at 50 nM incubated for 48 hrs by Annexin-V/FITC and propidium iodide staining based flow cytometry (reference value: 99.72%); format: functional
HeLa [11] = assay: Induction of apoptosis in human HeLa cells assessed as late apoptotic cells level at 50 nM incubated for 48 hrs by Annexin-V/FITC and propidium iodide staining based flow cytometry (reference value: 0.02%); format: functional
HeLa [12] = assay: Induction of apoptosis in human HeLa cells assessed as necrotic cells level at 50 nM incubated for 48 hrs by Annexin-V/FITC and propidium iodide staining based flow cytometry (reference value: 0.03%); format: functional
HeLa [13] = assay: Induction of apoptosis in human HeLa cells assessed as viable cells level at 100 nM incubated for 48 hrs by Annexin-V/FITC and propidium iodide staining based flow cytometry (reference value: 99.72%); format: functional
HeLa [14] = assay: Induction of apoptosis in human HeLa cells assessed as early apoptotic cells level at 100 nM incubated for 48 hrs by Annexin-V/FITC and propidium iodide staining based flow cytometry (reference value: 0.16%); format: functional
HeLa [15] = assay: Induction of apoptosis in human HeLa cells assessed as late apoptotic cells level at 100 nM incubated for 48 hrs by Annexin-V/FITC and propidium iodide staining based flow cytometry (reference value: 0.02%); format: functional
HeLa [16] = assay: Induction of apoptosis in human HeLa cells assessed as viable cells level at 500 nM incubated for 48 hrs by Annexin-V/FITC and propidium iodide staining based flow cytometry (reference value: 99.72%); format: functional
HeLa [17] = assay: Induction of apoptosis in human HeLa cells assessed as late apoptotic cells level at 500 nM incubated for 48 hrs by Annexin-V/FITC and propidium iodide staining based flow cytometry (reference value: 0.02%); format: functional
HeLa [18] = assay: Induction of apoptosis in human HeLa cells assessed as necrotic cells level at 500 nM incubated for 48 hrs by Annexin-V/FITC and propidium iodide staining based flow cytometry (reference value: 0.03%); format: functional
HeLa [19] = assay: Induction of apoptosis in human HeLa cells assessed as viable cells level at 50 nM incubated for 72 hrs by Annexin-V/FITC and propidium iodide staining based flow cytometry (reference value: 99.72%); format: functional
HeLa [20] = assay: Induction of apoptosis in human HeLa cells assessed as early apoptotic cells level at 50 nM incubated for 72 hrs by Annexin-V/FITC and propidium iodide staining based flow cytometry (reference value: 0.16%); format: functional
HeLa [21] = assay: Induction of apoptosis in human HeLa cells assessed as late apoptotic cells level at 50 nM incubated for 72 hrs by Annexin-V/FITC and propidium iodide staining based flow cytometry (reference value: 0.02%); format: functional
HeLa [22] = assay: Induction of apoptosis in human HeLa cells assessed as necrotic cells level at 50 nM incubated for 72 hrs by Annexin-V/FITC and propidium iodide staining based flow cytometry (reference value: 0.03%); format: functional
HeLa [23] = assay: Induction of apoptosis in human HeLa cells assessed as viable cells level at 100 nM incubated for 72 hrs by Annexin-V/FITC and propidium iodide staining based flow cytometry (reference value: 99.72%); format: functional
HeLa [24] = assay: Induction of apoptosis in human HeLa cells assessed as late apoptotic cells level at 100 nM incubated for 72 hrs by Annexin-V/FITC and propidium iodide staining based flow cytometry (reference value: 0.02%); format: functional
HeLa [25] = assay: Induction of apoptosis in human HeLa cells assessed as necrotic cells level at 100 nM incubated for 72 hrs by Annexin-V/FITC and propidium iodide staining based flow cytometry (reference value: 0.03%); format: functional
HeLa [26] = assay: Induction of apoptosis in human HeLa cells assessed as early apoptotic cells level at 500 nM incubated for 72 hrs by Annexin-V/FITC and propidium iodide staining based flow cytometry (reference value: 0.16%); format: functional
HeLa [27] = assay: Induction of apoptosis in human HeLa cells assessed as late apoptotic cells level at 500 nM incubated for 72 hrs by Annexin-V/FITC and propidium iodide staining based flow cytometry (reference value: 0.02%); format: functional
HeLa [28] = assay: Induction of mitochondrial transmembrane potential loss in human HeLa cells assessed as JC1 dye aggregates level at 50 nM incubated for 24 hrs by JC1 staining based flow cytometry (reference value: 95.85%); format: functional
HeLa [29] = assay: Induction of mitochondrial transmembrane potential loss in human HeLa cells assessed as JC1 dye monomers level at 50 nM incubated for 24 hrs by JC1 staining based flow cytometry (reference value: 4.12%); format: functional
HeLa [30] = assay: Induction of mitochondrial transmembrane potential loss in human HeLa cells assessed as JC1 dye monomers level at 100 nM incubated for 24 hrs by JC1 staining based flow cytometry (reference value: 4.12%); format: functional
HeLa [31] = assay: Induction of mitochondrial transmembrane potential loss in human HeLa cells assessed as JC1 dye aggregates level at 500 nM incubated for 24 hrs by JC1 staining based flow cytometry (reference value: 95.85%); format: functional
HeLa [32] = assay: Induction of mitochondrial transmembrane potential loss in human HeLa cells at 50 nM incubated for 24 hrs by JC1 staining based fluorescence microscopy; format: functional, cell-based
HeLa [33] = assay: Induction of mitochondrial transmembrane potential loss in human HeLa cells at 100 nM incubated for 24 hrs by JC1 staining based fluorescence microscopy; format: functional, cell-based
HeLa [34] = assay: Induction of mitochondrial transmembrane potential loss in human HeLa cells at 500 nM incubated for 24 hrs by JC1 staining based fluorescence microscopy; format: functional, cell-based

## COc1ccc(N(C)c2cc(C)nc(C)n2)cc1O
HCT-116
  IC50: 126 nM
HeLa [1]
  Activity: 28.3%
HeLa [2]
  Activity: 39.6%
HeLa [3]
  Activity: 55.6%
HeLa [4]
  Activity: 38.7%
HeLa [5]
  Activity: Active
HeLa [6]
  Activity: Active
HeLa [7]
  Activity: Active
HeLa [8]
  inhibition: Active
HeLa [9]
  inhibition: Active
HeLa [10]
  Activity: 89.56%
HeLa [11]
  Activity: 0%
HeLa [12]
  Activity: 0.01%
HeLa [13]
  Activity: 76.71%
HeLa [14]
  Activity: 23.16%
HeLa [15]
  Activity: 0.05%
HeLa [16]
  Activity: 29.81%
HeLa [17]
  Activity: 0.09%
HeLa [18]
  Activity: 0.29%
HeLa [19]
  Activity: 82.18%
HeLa [20]
  Activity: 9.78%
HeLa [21]
  Activity: 7.44%
HeLa [22]
  Activity: 0.6%
HeLa [23]
  Activity: 65.2%
HeLa [24]
  Activity: 11.63%
HeLa [25]
  Activity: 2.08%
HeLa [26]
  Activity: 66.08%
HeLa [27]
  Activity: 18.61%
HeLa [28]
  Activity: 88.35%
HeLa [29]
  Activity: 11.47%
HeLa [30]
  Activity: 28.64%
HeLa [31]
  Activity: 51.28%
HeLa [32]
  Activity: Active
HeLa [33]
  Activity: Active
HeLa [34]
  Activity: Active
